SMILES strings stand for the structures.

The results in this text go back to patent US8710076B2, “2,5-disubstituted piperidine orexin receptor antagonists” (Merck Sharp & Dohme Corp., priority 2008, dated 2014).

orexin-2 receptor (OX2R), sequence (O43614 whole entry): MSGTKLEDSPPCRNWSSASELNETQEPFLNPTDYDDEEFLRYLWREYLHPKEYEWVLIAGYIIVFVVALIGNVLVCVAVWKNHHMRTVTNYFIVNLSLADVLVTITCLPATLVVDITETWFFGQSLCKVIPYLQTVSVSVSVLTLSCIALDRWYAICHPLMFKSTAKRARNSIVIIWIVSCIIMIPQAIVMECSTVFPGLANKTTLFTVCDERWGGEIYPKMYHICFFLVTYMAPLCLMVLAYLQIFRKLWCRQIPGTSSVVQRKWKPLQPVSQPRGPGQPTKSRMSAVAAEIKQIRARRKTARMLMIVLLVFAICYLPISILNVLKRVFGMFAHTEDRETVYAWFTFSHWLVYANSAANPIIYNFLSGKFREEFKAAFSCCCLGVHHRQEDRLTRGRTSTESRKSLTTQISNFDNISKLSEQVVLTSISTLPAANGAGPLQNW

The assay deals with orexin-2 receptor (OX2R) (Homo sapiens (Human), UniProt O43614). Nature of the assay: radioligand binding assay, membranes from CHO cells expressing OX2. The conditions noted are these: membranes prepared from CHO cells expressing OX2. The protocol:
The utility of the compounds in accordance with the present invention as orexin receptor OX1R and/or OX2R antagonists may be readily determined without undue experimentation by methodology well known in the art, including the “FLIPR Ca^2+Flux Assay” (Okumura et al., Biochem. Biophys. Res. Comm. 280:976-981, 2001). In a typical experiment the OX1 and OX2 receptor antagonistic activity of the compounds of the present invention was determined in accordance with the following experimental method. For intracellular calcium measurements, Chinese hamster ovary (CHO) cells expressing the rat OX1 receptor or the human OX2 receptor, are grown in Iscove's modified DMEM containing 2 mM L-glutamine, […], 1% hypoxanthine-thymidine supplement, 100 U/ml penicillin, 100 ug/ml streptomycin and 10% heat-inactivated fetal calf serum (FCS). The cells are seeded at 20,000 cells/well into Becton-Dickinson black 384-well clear bottom sterile plates coated with poly-D-lysine. All reagents were from GIBCO-Invitrogen Corp. The seeded plates are incubated overnight at 37° C. and 5% CO2. Ala-6,12 human orexin-A as the agonist is prepared as a 1 mM stock solution in 1% bovine serum albumin (BSA) and diluted in assay buffer (HBSS containing 20 mM HEPES, 0.1% BSA and 2.5 mM probenecid, pH7.4) for use in the assay at a final concentration of 70 pM. Test compounds are prepared as 10 mM stock solution in DMSO, then diluted in 384-well plates, first in DMSO, then assay buffer. On the day of the assay, cells are washed 3 times with 100 ul assay buffer and then incubated for […] (37° C., 5% CO2) in 60 ul assay buffer containing 1 uM Fluo-4AM ester, 0.02% pluronic acid, and 1% BSA. The dye loading solution is then aspirated and cells are washed 3 times with 100 ul assay buffer. 30 ul of that same buffer is left in each well. Within the Fluorescent Imaging Plate Reader (FLIPR, Molecular Devices), test compounds are added to the plate in a volume of 25 ul, incubated for 5 min and finally 25 ul of agonist is added. Fluorescence is measured for each well at 1 second intervals for 5 minutes and the height of each fluorescence peak is compared to the height of the fluorescence peak induced by 70 pM Ala-6,12 orexin-A with buffer in place of antagonist. […] Alternatively, compound potency can be assessed by a radioligand binding assay (described in Bergman et. al. Bioorg. Med. Chem. Lett. 2008, 18, 1425-1430) in which the inhibition constant (Ki) is determined in membranes prepared from CHO cells expressing either the orexin-1 (OX1) or orexin-2 (OX2) receptor. The intrinsic orexin receptor antagonist activity of a compound which may be used in the present invention may be determined by these assays.
Turning to `C[C@@H]1CC[C@@H](Oc2ccnc3c(F)cccc23)CN1C(=O)c1ccccc1-n1nccn1` [E-2], the affinity corresponds to a Ki of 550 pM. That is a sub-nanomolar value. With `C[C@@H]1CC[C@@H](Oc2cccc3ocnc23)CN1C(=O)c1ccccc1-n1nccn1` (mixture of isomers) [1-1, (2R,5R)- and (2S,5S)-4-({6-methyl-1-[2-(2H-1,2,3-triazol-2-yl)benzoyl]piperidin-3-yl}oxy)-l,3-benzoxazole] the figure was 18300 pM. For `Cc1ccc(-n2nccn2)c(C(=O)N2C[C@H](Nc3nccc4ccccc34)CC[C@H]2C)c1` [H-4, N-{(2R,5R)-6-methyl-1-[5-methyl-2-(2H-1,2,3-triazol-2-yl)benzoyl]piperidin-3-yl}isoquinolin-1-amine], the inhibition constant Ki – broadly, a measure of affinity in units of concentration, obtained from inhibition or displacement – stood at 560 pM. This Ki lies about 33-fold lower than the previous one. With `C[C@@H]1CC[C@@H](Oc2nccc3ccccc23)CN1C(=O)c1ccccc1-n1nccn1` [F-2, 1-({(2R,5R)-6-methyl-1-[2-(2H-1,2,3-triazol-2-yl)benzoyl]piperidin-3-yl}oxy)-isoquinoline] the figure was 110 pM.
